Results reported in ChEMBL document CHEMBL5308504, “Tm Shift (DSF) assay results for EUbOPEN Chemogenomics Library” (2023).

Experiments:
[1] = target: T1, Peregrin (Homo sapiens) (UniProt P55201); conditions: Compound concentration 20.0 uM, Protein concentration 2.0 uM, Result type QC Liability
T1 sequence (whole entry): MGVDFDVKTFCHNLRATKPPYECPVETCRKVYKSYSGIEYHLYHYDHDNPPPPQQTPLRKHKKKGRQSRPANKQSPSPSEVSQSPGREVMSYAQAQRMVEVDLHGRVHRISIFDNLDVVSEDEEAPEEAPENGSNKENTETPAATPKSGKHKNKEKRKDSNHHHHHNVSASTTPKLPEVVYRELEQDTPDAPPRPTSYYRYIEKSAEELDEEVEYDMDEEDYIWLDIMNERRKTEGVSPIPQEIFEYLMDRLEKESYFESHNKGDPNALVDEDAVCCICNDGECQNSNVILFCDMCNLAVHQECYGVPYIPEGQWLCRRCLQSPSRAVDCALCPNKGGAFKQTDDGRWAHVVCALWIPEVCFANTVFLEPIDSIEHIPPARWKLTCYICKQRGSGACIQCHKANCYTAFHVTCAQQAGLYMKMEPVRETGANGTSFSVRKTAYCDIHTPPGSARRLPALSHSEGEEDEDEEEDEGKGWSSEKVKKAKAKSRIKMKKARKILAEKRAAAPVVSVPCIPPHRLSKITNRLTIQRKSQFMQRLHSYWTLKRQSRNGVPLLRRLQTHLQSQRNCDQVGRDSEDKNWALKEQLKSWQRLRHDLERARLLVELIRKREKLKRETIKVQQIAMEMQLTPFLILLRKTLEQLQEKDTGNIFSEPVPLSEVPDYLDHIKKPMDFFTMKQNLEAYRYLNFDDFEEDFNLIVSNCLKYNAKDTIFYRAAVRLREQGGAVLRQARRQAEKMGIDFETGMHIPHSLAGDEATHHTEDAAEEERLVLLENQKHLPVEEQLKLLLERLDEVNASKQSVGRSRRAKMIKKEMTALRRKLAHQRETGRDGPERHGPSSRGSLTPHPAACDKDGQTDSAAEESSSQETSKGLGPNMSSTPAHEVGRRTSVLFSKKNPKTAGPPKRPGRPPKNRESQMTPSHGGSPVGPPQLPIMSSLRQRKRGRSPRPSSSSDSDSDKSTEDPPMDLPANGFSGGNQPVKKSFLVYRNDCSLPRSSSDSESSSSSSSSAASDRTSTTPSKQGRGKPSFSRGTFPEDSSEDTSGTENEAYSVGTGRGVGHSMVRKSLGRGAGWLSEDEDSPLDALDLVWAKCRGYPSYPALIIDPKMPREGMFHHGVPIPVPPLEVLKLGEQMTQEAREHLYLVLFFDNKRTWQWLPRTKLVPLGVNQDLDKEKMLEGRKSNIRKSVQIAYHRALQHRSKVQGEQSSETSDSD

[2] = target: Fibroblast growth factor receptor 3 (Homo sapiens) (UniProt P22607); conditions: Compound concentration 20.0 uM, Protein concentration 2.0 uM, Result type QC Liability
Fibroblast growth factor receptor 3 (Homo sapiens), sequence (P22607 23-806 limits assumed): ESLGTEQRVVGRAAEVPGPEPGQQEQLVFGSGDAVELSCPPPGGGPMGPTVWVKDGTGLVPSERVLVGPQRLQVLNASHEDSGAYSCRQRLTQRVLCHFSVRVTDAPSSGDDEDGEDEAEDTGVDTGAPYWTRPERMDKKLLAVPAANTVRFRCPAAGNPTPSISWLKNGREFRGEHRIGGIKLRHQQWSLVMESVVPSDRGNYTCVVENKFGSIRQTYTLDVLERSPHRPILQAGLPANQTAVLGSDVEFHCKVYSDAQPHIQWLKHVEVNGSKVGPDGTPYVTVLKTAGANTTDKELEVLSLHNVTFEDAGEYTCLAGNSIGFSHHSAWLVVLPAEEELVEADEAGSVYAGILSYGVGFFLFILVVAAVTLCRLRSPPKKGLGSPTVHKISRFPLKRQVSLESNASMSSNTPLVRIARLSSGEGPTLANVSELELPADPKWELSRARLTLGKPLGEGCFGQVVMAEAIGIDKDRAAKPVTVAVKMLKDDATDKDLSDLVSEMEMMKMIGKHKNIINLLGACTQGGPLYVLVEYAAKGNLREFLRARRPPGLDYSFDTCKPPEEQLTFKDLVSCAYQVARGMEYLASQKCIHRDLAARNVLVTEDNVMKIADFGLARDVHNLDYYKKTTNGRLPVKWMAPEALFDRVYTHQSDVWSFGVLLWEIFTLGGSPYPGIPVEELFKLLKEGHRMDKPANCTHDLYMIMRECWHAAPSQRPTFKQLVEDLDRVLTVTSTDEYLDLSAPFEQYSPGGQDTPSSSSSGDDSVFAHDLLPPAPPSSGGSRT
Description: Thermal Shift Assay. Domain: start/stop: P449-E759

ΔTm [1]	ΔTm [2]	SMILES
-0.8 °C	-1.35 °C	CNCc1ccc(-c2cc(-c3nc(-c4ccc(S(=O)(=O)C(C)C)cc4)cnc3N)on2)cc1
-3.03 °C	0.16 °C	Cc1cc2c(cc(C(=O)N[C@H](CO)c3ccc(S(=O)(=O)CC(=O)O)cc3)n2C)c(Cl)c1Cl
-4.19 °C	0.54 °C	O=C(O)c1ccc(OCCCc2ccc(OCCCCOC3CCCCC3)cc2)c(C(=O)NC2CCCC(C(=O)O)C2)c1 (stereo not given)
-2.72 °C	-0.84 °C	CCc1nc(-c2cccc(C)c2)c(-c2ccnc(NC(=O)c3ccccc3)c2)s1
-2.51 °C	1.04 °C	O=C1Nc2nc(-c3c(O)cccc3OCC3CC3)cc([C@@H]3CCCNC3)c2CO1
